Literature values in patent publication US11883453B2, “Formulation based on medicinal plant, or part or extract thereof, use of the formulation and product including said formulation” (priority 2018, dated 2024).

Columns and labels:
[1] = disk-diffusion
3T3 fibroblast strains [2] = settings: MTT, 3T3 fibroblasts
[3] = rate proportional to concentration
3T3 fibroblast strains [4] = settings: Scratch Assay, 3T3 fibroblasts, compared to Calendula extract

SMILES | Antimicrobial activity (inhibition halos in agar) [1] | Cytotoxicity (3T3 fibroblast strains [2]) | Elimination of free radicals [3] | Effect on in vitro healing (3T3 fibroblast strains [4])
C=C(C)[C@@H]1CC[C@]2(C)CC[C@]3(C)[C@H](CC[C@@H]4[C@@]5(C)CC[C@H](O)C(C)(C)[C@@H]5CC[C@]43C)[C@@H]12 [Lupeol] | confirmed the antimicrobial activity | no toxicity found | excellent properties to eliminate free radicals | 
CCCCCCCCCCCCCC(=O)OC1CCC2(C)C(CCC3(C)C2CCC2C4C(C)C(C)=CCC4(C)C(O)CC23C)C1(C)C (centres unmarked) [faradiol myristate] |  |  |  | partial role in the healing process compared to the extract
CCCCCCCCCCCCCCCC(=O)OC1CCC2(C)C(CCC3(C)C2CCC2C4C(C)C(C)=CCC4(C)C(O)CC23C)C1(C)C (centres unmarked) [faradiol palmitate] |  |  |  | partial role in the healing process compared to the extract
